Reference: patent publication US7846959B2, “Raf modulators and methods of use” (Exelixis, Inc., priority 2004, dated 2010)

Key:
c-Raf = c-Raf (Homo sapiens, UniProt P04049); test: Luciferase-coupled chemiluminescence kinase assay (ATP consumption), c-Raf; type: biochemical; details: read-out: cRaf-1 IC50
Procedure, shortened: (§1)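 ATP depletion, limited to 25-60%, read by luciferase-luciferin chemiluminescence gives IC50 values. Before the 3 hr ambient-temperature kinase reaction with ATP, compound and […] enzyme were preincubated 30 minutes at room temperature in Tris pH 7.5 buffer with MgCl2, TX-100 and DTT.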

B-Raf = B-Raf (Homo sapiens, UniProt P15056); test: Luciferase-coupled chemiluminescence kinase assay (ATP consumption), B-Raf; type: biochemical; details: read-out: bRaf IC50
Chain of B-Raf (P15056 whole entry): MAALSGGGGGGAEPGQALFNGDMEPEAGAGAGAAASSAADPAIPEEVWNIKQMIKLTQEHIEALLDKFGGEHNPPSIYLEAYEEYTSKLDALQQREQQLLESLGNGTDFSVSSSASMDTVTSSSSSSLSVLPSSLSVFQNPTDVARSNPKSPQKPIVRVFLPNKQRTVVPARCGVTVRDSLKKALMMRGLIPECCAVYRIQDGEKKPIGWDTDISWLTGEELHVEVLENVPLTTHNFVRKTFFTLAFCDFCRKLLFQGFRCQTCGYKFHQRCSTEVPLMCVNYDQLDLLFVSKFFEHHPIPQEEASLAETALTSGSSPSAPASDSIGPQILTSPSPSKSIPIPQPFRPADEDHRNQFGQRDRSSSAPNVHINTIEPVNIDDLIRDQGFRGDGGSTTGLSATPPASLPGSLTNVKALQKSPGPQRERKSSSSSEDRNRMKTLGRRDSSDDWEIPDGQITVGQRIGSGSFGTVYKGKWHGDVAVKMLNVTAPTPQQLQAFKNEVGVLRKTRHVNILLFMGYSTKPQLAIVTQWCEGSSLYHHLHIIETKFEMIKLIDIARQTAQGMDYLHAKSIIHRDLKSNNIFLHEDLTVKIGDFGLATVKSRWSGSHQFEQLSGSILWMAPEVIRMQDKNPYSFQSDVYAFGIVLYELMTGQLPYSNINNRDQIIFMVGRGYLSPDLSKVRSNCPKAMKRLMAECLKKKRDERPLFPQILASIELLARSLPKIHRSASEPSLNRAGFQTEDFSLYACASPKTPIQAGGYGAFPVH
Procedure, shortened: as §1

Chain of c-Raf (P04049 whole entry): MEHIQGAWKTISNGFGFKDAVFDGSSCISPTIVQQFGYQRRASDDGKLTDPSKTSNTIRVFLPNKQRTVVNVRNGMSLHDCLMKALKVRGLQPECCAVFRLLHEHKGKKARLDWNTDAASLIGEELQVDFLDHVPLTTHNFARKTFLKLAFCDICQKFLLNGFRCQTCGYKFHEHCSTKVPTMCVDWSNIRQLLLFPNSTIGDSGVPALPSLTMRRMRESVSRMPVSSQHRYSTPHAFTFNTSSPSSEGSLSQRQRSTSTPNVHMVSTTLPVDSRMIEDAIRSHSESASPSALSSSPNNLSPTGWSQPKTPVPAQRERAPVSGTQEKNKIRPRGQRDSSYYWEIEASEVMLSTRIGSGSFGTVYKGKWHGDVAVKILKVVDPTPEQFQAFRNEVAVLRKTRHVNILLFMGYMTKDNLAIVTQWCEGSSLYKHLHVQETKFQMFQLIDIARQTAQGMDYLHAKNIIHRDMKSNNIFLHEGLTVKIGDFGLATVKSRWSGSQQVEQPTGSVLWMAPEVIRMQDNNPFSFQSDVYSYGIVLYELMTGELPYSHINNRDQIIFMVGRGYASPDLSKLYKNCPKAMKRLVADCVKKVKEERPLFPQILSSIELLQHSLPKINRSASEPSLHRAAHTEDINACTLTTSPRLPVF

| Structure (SMILES) | IC50 (c-Raf) [nM] | IC50 (B-Raf) [nM] |
| --- | --- | --- |
| CCc1cc(N2C(=O)c3ccccc3C2(O)c2ccc3[nH]c(NC(=O)OC)nc3c2)ccc1F (stereo not drawn) [Entry 238, methyl {5-[2-(3-ethyl-4-fluorophenyl)-1-hydroxy-3-oxo-2,3-dihydro-1H-isoindol-1-yl]-1H-benzimidazol-2-yl}carbamate] | < 100 | < 100 |
| COC(=O)Nc1nc2cc(C3(O)c4ccccc4C(=O)N3c3cc(F)cc(Cl)c3)ccc2[nH]1 (stereo not drawn) [Entry 239, methyl {5-[2-(3-chloro-5-fluorophenyl)-1-hydroxy-3-oxo-2,3-dihydro-1H-isoindol-1-yl]-1H-benzimidazol-2-yl}carbamate] | < 100 | < 100 |
| CC(C)C(=O)Nc1nc2ccc(C3(O)c4ccccc4C(=O)N3Cc3ccccc3)cc2[nH]1 (stereo not drawn) [Entry 240, N-{6-[1-hydroxy-3-oxo-2-(phenylmethyl)-2,3-dihydro-1H-isoindol-1-yl]-1H-benzimidazol-2-yl}-2-methylpropanamide] | 100 to 1000 | 100 to 1000 |
| COC(=O)Nc1nc2cc(C3(O)c4ccccc4C(=O)N3C(C)c3sccc3Cl)ccc2[nH]1 (stereo not drawn) [Entry 241, methyl (5-{2-[1-(3-chloro-2-thienyl)ethyl]-1-hydroxy-3-oxo-2,3-dihydro-1H-isoindol-1-yl}-1H-benzimidazol-2-yl)carbamate] | 1000 to 10000 | 1000 to 10000 |
| COC(=O)Nc1nc2cc(C3(O)c4ccccc4C(=O)N3c3cccnc3)ccc2[nH]1 (stereo not drawn) [Entry 242, methyl [5-(1-hydroxy-3-oxo-2-pyridin-3-yl-2,3-dihydro-1H-isoindol-1-yl)-1H-benzimidazol-2-yl]carbamate] | < 100 | 100 to 1000 |
| COC(=O)Nc1nc2cc(C3(O)c4ccccc4C(=O)N3c3cccc(Nc4ccccc4)c3)ccc2[nH]1 (stereo not drawn) [Entry 243, methyl (5-{1-hydroxy-3-oxo-2-[3-(phenylamino)phenyl]-2,3-dihydro-1H-isoindol-1-yl}-1H-benzimidazol-2-yl)carbamate] | 100 to 1000 | 100 to 1000 |
| COC(=O)Nc1nc2cc(C3(O)c4ccccc4C(=O)N3c3cc(Br)c(F)cc3F)ccc2[nH]1 (stereo not drawn) [Entry 244, methyl {5-[2-(5-bromo-2,4-difluorophenyl)-1-hydroxy-3-oxo-2,3-dihydro-1H-isoindol-1-yl]-1H-benzimidazol-2-yl}carbamate] | < 100 | < 100 |
| COC(=O)Nc1nc2cc(C3(O)c4ccccc4C(=O)N3c3cc(Cl)c(F)cc3F)ccc2[nH]1 (stereo not drawn) [Entry 245, methyl {5-[2-(5-chloro-2,4-difluorophenyl)-1-hydroxy-3-oxo-2,3-dihydro-1H-isoindol-1-yl]-1H-benzimidazol-2-yl}carbamate] | < 100 | < 100 |
| COC(=O)Nc1nc2cc(C3(O)c4ccccc4C(=O)N3c3cc(Cl)c(F)c(Cl)c3)ccc2[nH]1 (stereo not drawn) [Entry 246, methyl {5-[2-(3,5-dichloro-4-fluorophenyl)-1-hydroxy-3-oxo-2,3-dihydro-1H-isoindol-1-yl]-1H-benzimidazol-2-yl}carbamate] | 100 to 1000 | 1000 to 10000 |
| COCC(C)(C)COC(=O)Nc1nc2cc(C3(O)c4ccccc4C(=O)N3Cc3ccccc3)ccc2[nH]1 (stereo not drawn) [Entry 247, 2,2-dimethyl-3-(methyloxy)propyl {5-[1-hydroxy-3-oxo-2-(phenylmethyl)-2,3-dihydro-1H-isoindol-1-yl]-1H-benzimidazol-2-yl}carbamate] | 100 to 1000 | 100 to 1000 |
| CC(C)(CO)COC(=O)Nc1nc2cc(C3(O)c4ccccc4C(=O)N3Cc3ccccc3)ccc2[nH]1 (stereo not drawn) [Entry 248, 3-hydroxy-2,2-dimethylpropyl {5-[1-hydroxy-3-oxo-2-(phenylmethyl)-2,3-dihydro-1H-isoindol-1-yl]-1H-benzimidazol-2-yl}carbamate] | 100 to 1000 | 100 to 1000 |
| COC(=O)Nc1nc2cc(C3(O)c4ccccc4C(=O)N3C(C)c3ccc(Br)s3)ccc2[nH]1 (stereo not drawn) [Entry 249, methyl (5-{2-[1-(5-bromo-2-thienyl)ethyl]-1-hydroxy-3-oxo-2,3-dihydro-1H-isoindol-1-yl}-1H-benzimidazol-2-yl)carbamate] | < 100 | < 100 |
| COC(=O)Nc1nc2cc(C3(O)c4ccccc4C(=O)N3c3cc(Cl)c(Cl)cc3F)ccc2[nH]1 (stereo not drawn) [Entry 250, methyl {5-[2-(4,5-dichloro-2-fluorophenyl)-1-hydroxy-3-oxo-2,3-dihydro-1H-isoindol-1-yl]-1H-benzimidazol-2-yl}carbamate] | < 100 | < 100 |
| COC(=O)Nc1nc2cc(C3(O)c4ccccc4C(=O)N3c3cccc(Br)c3F)ccc2[nH]1 (stereo not drawn) [Entry 251, methyl {5-[2-(3-bromo-2-fluorophenyl)-1-hydroxy-3-oxo-2,3-dihydro-1H-isoindol-1-yl]-1H-benzimidazol-2-yl}carbamate] | < 100 | < 100 |
| COC(=O)Nc1nc2cc(C3(O)c4ccccc4C(=O)N3c3ccc(F)c(Cl)c3F)ccc2[nH]1 (stereo not drawn) [Entry 252, methyl {5-[2-(3-chloro-2,4-difluorophenyl)-1-hydroxy-3-oxo-2,3-dihydro-1H-isoindol-1-yl]-1H-benzimidazol-2-yl}carbamate] | < 100 | < 100 |
| C#CCCC(=O)Nc1nc2ccc(C3(O)c4ccccc4C(=O)N3Cc3ccccc3)cc2[nH]1 (stereo not drawn) [Entry 253, N-{6-[1-hydroxy-3-oxo-2-(phenylmethyl)-2,3-dihydro-1H-isoindol-1-yl]-1H-benzimidazol-2-yl}pent-4-ynamide] | < 100 | < 100 |
| COC(=O)Nc1nc2ccc(C3(C)c4ccccc4C(=O)N3c3cccc(C(F)(F)F)c3)cc2[nH]1 (stereo not drawn) [Entry 254, methyl (6-{1-methyl-3-oxo-2-[3-(trifluoromethyl)phenyl]-2,3-dihydro-1H-isoindol-1-yl}-1H-benzimidazol-2-yl)carbamate] | < 100 | < 100 |
| COC(=O)Nc1nc2cc(C3(O)c4ccccc4C(=O)N3c3cccc(OC(F)(F)C(F)F)c3)ccc2[nH]1 (stereo not drawn) [Entry 255, methyl [5-(1-hydroxy-3-oxo-2-{3-[(1,1,2,2-tetrafluoroethyl)oxy]phenyl}-2,3-dihydro-1H-isoindol-1-yl)-1H-benzimidazol-2-yl]carbamate] | 1000 to 10000 | 1000 to 10000 |
| COC(=O)Nc1nc2cc(C3(O)c4ccccc4C(=O)N3c3cccc(C4CCNCC4)c3)ccc2[nH]1 (stereo not drawn) [Entry 256, methyl {5-[1-hydroxy-3-oxo-2-(3-piperidin-4-ylphenyl)-2,3-dihydro-1H-isoindol-1-yl]-1H-benzimidazol-2-yl}carbamate] | 100 to 1000 | 100 to 1000 |
| C=Cc1cccc(N2C(=O)c3ccccc3C2(O)c2ccc3[nH]c(NC(=O)OC)nc3c2)c1 (stereo not drawn) [Entry 257, methyl {5-[2-(3-ethenylphenyl)-1-hydroxy-3-oxo-2,3-dihydro-1H-isoindol-1-yl]-1H-benzimidazol-2-yl}carbamate] | < 100 | < 100 |
| COC(=O)Nc1nc2cc(C3(O)c4ccccc4C(=O)N3c3cccc(N(C)C)c3)ccc2[nH]1 (stereo not drawn) [Entry 258, methyl (5-{2-[3-(dimethylamino)phenyl]-1-hydroxy-3-oxo-2,3-dihydro-1H-isoindol-1-yl}-1H-benzimidazol-2-yl)carbamate] | < 100 | < 100 |
